Source: patent US5587490A, “Method of inactivation of viral and bacterial blood contaminants” (Credit Managers Association of California, priority 1993, dated 1996)
Read-outs that look alike come from different tables or passages of the source.

Experiments:
red cells = assay: Red cell in vitro properties following UVA viral inactivation treatment; type: cell-based, human; conditions: 0.3 mg/mL
Protocol: (§1) Units of packed red cells were transferred to Stericon™ red cell freezing bags and the hematocrits were adjusted to 60% with PBS. The samples were spiked with 5×10^6 PFU/mL .phi.6 phage and 0.3 mg/mL sensitizer 8B. The contents of the bag was exposed to UVA light from top (3.6 mW/cm^2) and bottom (3.4 mW/cm^2) for 6 hours (151.2 J/cm^2). The samples were mixed continuously during UVA exposure on an orbital shaker. The final viral titer in the sample was determined by the plaque method. In vitro biochemical and biophysical properties of treated red cells were monitored for 7 day following the treatment.

phi 6 phage [1] = assay: UVA inactivation of phi 6 in packed red cells; type: cell-based
Protocol: as §1, with “The samples were spiked with 5×10^6 PFU/mL .phi.6 phage and 0.3 mg/mL sensitizer 8B. The contents of the bag was exposed to UVA light from top (3.6 mW/cm^2) and bottom (3.4 mW/cm^2) for 6 hours (151.2 J/cm^2).” left out
The viral inactivation kinetics in red cells is dependent on the intensity of the UVA light source. The data in Table 4 below indicate that the time required to achieve 6 logs of viral reduction varies with the intensity of the UVA light source used.

platelets [2] = assay: Platelet cell count after UV treatment; type: cell-based, human; conditions: Treated, UVA 10 min
Protocol: (§2) Single unit platelet concentrates were obtained 24 hours after collection from certified blood banks. The platelet were subjected to soft spin to remove residual RBC and about 6 logs of .phi.6 phage and sensitizer 8B were added in PBS solution to obtain 0.03 mg/mL final sensitizer concentration. The samples were transferred to Stericon™ polyolefin bag (which transmits 60% of UVA light) and irradiated from top (3.6 mW/cm^2) and bottom (3.4 mW/cm^2) in a home made reactor for 10 min. The bags were continuously mixed on extended glass platform attached to orbital shaker. The viral inactivation values and in vitro properties of platelet concentrates were monitored for 2 days after the treatment.

[3] = system: Salmonella typhimurium TA1538; assay: Ames mutagenicity plate incorporation assay, TA1538; type: cell-based; conditions: average of duplicate plates
platelet concentrates = assay: pH of platelet concentrates after UV treatment; type: cell-based, human; conditions: Treated, UVA 10 min
Protocol: as §2

platelets [4] = type: cell-based, human
Protocol: (§3) Human platelet concentrates are mixed with phi 6 bacteriophage, with or without sensitizer, then exposed to U.V. light. Cell quality assays after treatment include morphology score conducted by visual inspection using a light microscope (using a Kunicki scoring system), hypotonic shock response (HSR), aggregation response induced by addition of ADP measured in an aggregometer, and cell number count.
(§4) 1. Soft spin platelet unit at 1000 rpm for 5 min to remove RBC.
(§5) 2. Dilute concentrated platelets with spun autologous plasma to obtain a conc. of 500×10^6 cells/ml.
(§6) 3. Add 5×10^6 of .phi.6 to the platelet suspension and mix gently.
(§7) 4. Add sensitizer to the platelet suspension and incubate for 15 min while protecting from light. Control samples have PBS added.
(§8) 5. Pipet 2 ml aliquots into small plastic petri dishes and irradiate with UV while rotating samples at 100 rpm on a shaker. Irradiate samples without cover.
(§9) 6. Transfer irradiated samples to 15 ml plastic centrifuge tubes.
(§10) 7. Determine morphology, HSR, ADP, Viral inactivation, cell count.
The vital inactivation values and in vitro properties of platelets subjected to viral inactivation treatment using various derivatives of psoralen are summarized in Table 1.
as §2

[5] = system: Salmonella typhimurium TA100; assay: Ames mutagenicity plate incorporation assay, TA100; type: cell-based; conditions: average of duplicate plates
phi 6 phage [6] = assay: UV inactivation of phi 6 in human plasma or fetal bovine serum; type: cell-based; conditions: light or radiation study, 0.5 h; Fetal bovine serum, 0.03 mg/mL, UVA 30 min. (8.4 J/cm^2); read-out: Viral Reduction (log), phi 6
Protocol: (§11) Viral inactivation in FBS was carried out in 100 mL serum samples in 225 cm^2 tissue culture flask in the presence of sensitizer 8B (0.03 mg/mL). The sample was exposed to UVA light from top (3.6 mW/cm^2) and bottom (3.4 mW/cm^2) while continuously mixing on an orbital shaker for 30 min. (8.4 J/cm^2). Human plasma was irradiated in a Pyrex glass photolysis cell in the presence of sensitizer 8 (0.1 mg/mL) for 5 min. Inactivation of various bacteriophages were carried out using brominated psoralens in combination with UVA light. The results in Table 5 below clearly indicate that 5-7 logs of viral reduction was obtained with various phage (enveloped and non-enveloped) in human plasma fractions and fetal bovine serum products.

phi 6 bacteriophage = assay: UV inactivation of phi 6 in platelet preparations; type: cell-based; conditions: for log reduction at 30 µg/mL: Bacteriophage sp., Platelet, light or radiation study, 10 min
Protocol: as §3, §4, §5, §6, §7, §8, §9, §10
To test the viral inactivation efficiency of brominated sensitizers, platelet preparations (2 mL, PRP) were spiked with .phi.6 phage and brominated psoralen (8B) and non-brominated psoralen(8C) were added to obtain final sensitizer concentration of 0.1 mg/mL. The samples were exposed to UVA light in a home made reactor consisting of 4 UVA lamps for the indicated time periods. The petri dishes containing samples were mixed on an orbital shaker during UVA exposure. The UVA light intensity at the sample position was measured at 3.3 mW/cm^2. The residual viral titer after each time point was measured by plaque method The viral reduction values are illustrated in FIG. 26.
Single unit platelet concentrates were obtained 24 hours after collection from certified blood banks. […] The viral inactivation values and in vitro properties of platelet concentrates were monitored for 2 days after the treatment.

salmonella mutants = assay: Standard Ames mutagenicity test, overall outcome; type: cell-based, Salmonella typhimurium; conditions: 0.6 mg/mL; in words
bacterial phage λ = assay: UV inactivation of lambda phage in plasma or fetal bovine serum; type: cell-based; conditions: Escherichia phage Lambda, light or radiation study, 0.5 h; Fetal bovine serum, 0.03 mg/mL, UVA 30 min. (8.4 J/cm^2); read-out: Viral Reduction (log), λ
Protocol: A stock solution of bacterial phage λ is added to plasma to obtain final titre of 1.2×10^8 PFU/ml and compound No. 3 (structure given above) at 0.1 mg/ml concentration. The mixture was transferred to Pyrex glass photolysis cells and exposed to UV (300-360 nm blue lamp) for 5 minutes. After UV irradiation treatment the final viral titre and Factor VIII activity were measured as described earlier. […] About 3-6 logs of increased viral inactivation was obtained with protein coated viruses using a sensitizer. Only 10% of Factor VIII activity was recovered after viral inactivation treatment.
as §11

[7] = system: Salmonella typhimurium TA98; assay: Ames mutagenicity plate incorporation assay, TA98; type: cell-based; conditions: average of duplicate plates
[8] = system: Salmonella typhimurium TA1537; assay: Ames mutagenicity plate incorporation assay, TA1537; type: cell-based; conditions: average of duplicate plates
[9] = system: Salmonella typhimurium TA1535; assay: Ames mutagenicity plate incorporation assay, TA1535; type: cell-based; conditions: average of duplicate plates

In the case of `CC[N+](CC)(CC)CCCOc1c2occc2c(Br)c2ccc(=O)oc12` [Sensitizer 8B], the “alterations in in vitro biochemical and biophysical properties” value (red cells; UVA 6 hours, in words) is reported as “without any significant alterations in in vitro biochemical and biophysical properties”, the “% Hemochrome” value (red cells; Treated, Day 1, UVA 6 hours) is reported as 1.9% and the “DI Max % control (deformability index)” value (red cells; Treated, Day 1, UVA 6 hours) is reported as 97.4 % control. For the same compound, the MCV (red cells; Treated, Day 1, UVA 6 hours (151.2 J/cm^2)) was 88.8, the “% Hemochrome” value (red cells; Treated, Day 2, UVA 6 hours) was 0.6% and the “DI Max % control (deformability index)” value (red cells; Treated, Day 2, UVA 6 hours) was 99.6 % control. The “% Hemochrome” value (red cells; Treated, Day 7, UVA 6 hours) was 0.2%, the “DI Max % control (deformability index)” value (red cells; Treated, Day 7, UVA 6 hours) was 99.0 % control and the “Time Required for 6.0 logs V.I.” value (phi 6 phage [1]; UV Reactor 1, Top, 3.3 mW/cm^2, 0.1 mg/mL, n = 1) was 16.4 Hours. The “Time Required for 6.0 logs V.I.” value (phi 6 phage [1]; UV Reactor 2, Top + Bottom, 3.6/3.4 mW/cm^2, 0.1 mg/mL, n = 9) was 7.0 ± 1.2 Hours, the “Time Required for 6.0 logs V.I.” value (phi 6 phage [1]; UV Reactor 3, Top + Bottom, 40/40 mW/cm^2, 0.1 mg/mL, n = 3) was 1.3 ± 0.4 Hours and the Cell count (platelets [2]; 0 Hour) was 474. For the same compound, the Cell count (platelets [2]; 24 Hours) was 499, the Cell count (platelets [2]; 48 Hours) was 506 and the “Number of Revertant Colonies” value ([3]; w/S-9) was 25. For the same compound, the “Number of Revertant Colonies” value ([3]; without S-9) was 22, the pH (platelet concentrates; 0 Hour) was 7.2 and the pH (platelet concentrates; 24 Hours) was 7.1. For the same compound, the pH (platelet concentrates; 48 Hours) was 6.8, the “ADP Agg.” value (platelets [4]) was 26 ± 10 and the “Number of Revertant Colonies” value ([5]; w/S-9) was 245. The “Number of Revertant Colonies” value ([5]; without S-9) was 164, the log reduction at 30 µg/mL (phi 6 phage [6]) was 6.5 and the “fold improvement in the level of viral inactivation, brominated (8B) vs non-brominated (8C)” value (phi 6 bacteriophage; 0.1 mg/mL, UVA 3.3 mW/cm^2) was at most 400 fold. The log reduction at 30 µg/mL (phi 6 bacteriophage; read-out: V.I (log10)) was 5.3, the log reduction at 30 µg/mL (phi 6 bacteriophage; read-out: viral reduction) was over 5.3 and the Ames mutagenicity (salmonella mutants) was “non-mutagenic”. The log reduction at 30 µg/mL (bacterial phage λ) was 6.6, the “Number of Revertant Colonies” value ([7]; w/S-9) was 83 and the “Number of Revertant Colonies” value ([7]; without S-9) was 55. For the same compound, the “Number of Revertant Colonies” value ([8]; w/S-9) was 26, the “Number of Revertant Colonies” value ([8]; without S-9) was 36 and the “Number of Revertant Colonies” value ([9]; w/S-9) was 197. For the same compound, the “Number of Revertant Colonies” value ([9]; without S-9) was 173.
